Measurements as given in patent publication US12458020B2, “Synergistic herbicidal mixtures and compositions comprising triclopyr and phosphate ester adjuvants” (SBM Développement SAS, priority 2019, dated 2025).

Key:
[1] = test system: English ivy (Hedera helix); test: Field trial of triclopyr plus phosphate ester adjuvants on English ivy plots (Example 2); type: in vivo; conditions: triclopyr by itself, 0.55% w/v; single application
Experimental: The objective of the trial was to measure the effects of adjuvants in the same class of chemistry in the control of the evasive weed species English ivy (Hedera helix). The trial was conducted in a recreational setting at a golf course. Plots were 2×2 meters and the treatments consisted of triclopyr in the form of BioAdvanced Brush Killer Plus® 8.8% triclopyr mixed to a 0.55% w/v concentration for all the treatments, and various adjuvants treated at 0.5% ai/v (i.e., % w/v of the active ingredient) (Table 2). Controls included an untreated check group. All treatments and controls were repeated in triplicate (i.e., three plots per group). The plots were treated at the standard rate of 2 gal of mixed product per 1000 square feet. The plots were rated for the percent English Ivy in each plot. […] Trial was observed over time for the presence of English ivy in each plot.

[2] = test system: brush (e.g., poison ivy, poison oak, black berries, etc.); test: Field trial of residual control of brush, rated as bare ground (Example 3); type: in vivo; conditions: triclopyr alone at 0.275, 0.55 and 0.8% ai/v
Experimental: The objective of the trial was to determine the effects of concentration and adjuvant on triclopyr and its residual control of brush. The trial was conducted in a recreational setting at a golf course. Plots were 1×1 meters and the treatments comprised BioAdvanced Brush Killer Plus® (8.8% triclopyr) mixed to 0.275% ai/v with various adjuvants treated at 0.1% ai/v (i.e., % weight of the active ingredient per volume) (Table 3), Controls included an untreated check group and triclopyr alone at three concentrations (0.275, 0.55, and 0.8% ai/v). All treatments and controls were repeated in triplicate (i.e., three plots per group). The plots were treated at the standard rate of 2 gal of mixed product per 1000 square feet. The plots were rated for the percent of brush (e.g., poison ivy, poison oak, black berries, etc.) in each plot. […] The observations were based upon the amount of clear area (without vegetation) in each plot.

SMILES: O=C(O)COc1nc(Cl)c(Cl)cc1Cl [triclopyr, 3,5,6-Trichloro-2-pyridinyloxyacetic acid]
- control of the English ivy [1]: about 53%
- residual efficacy on brush as a function of triclopyr concentration [2]: the higher the concentration of the triclopyr the longer the residual efficacy
